Measured values: ChEMBL document CHEMBL1134428, “Combretoxazolones: synthesis, cytotoxicity and antitumor activity” (Bioorg Med Chem Lett, 2001)
pIC50: −log10 of the molar value.

Key:
B16 [1] = experiment: Concentration which produces 50% inhibition of growth of murine melanoma B16 cell line; type: functional, cell-based; conditions: Mus musculus
A549 [2] = experiment: Concentration which produces 50% inhibition of growth of human lung carcinoma cell line A549; type: functional, cell-based
HCT-116 [3] = experiment: Concentration which produces 50% inhibition of growth of human colon tumor HCT 116; type: functional, cell-based
PC-3 [4] = experiment: Concentration which produces 50% inhibition of growth of prostate tumor cell line PC-3; type: functional, cell-based; conditions: Homo sapiens
MCF7 [5] = experiment: Concentration which produces 50% inhibition of growth of human breast tumor MCF-7 cell line; type: functional, cell-based
A549 [6] = experiment: Compound was tested for inhibition of growth of human lung carcinoma cell line A549 up to a conc of 10 uM; NI means no inhibition; type: functional, cell-based
HCT-116 [7] = experiment: Compound was tested for inhibition of growth of human colon tumor HCT116 up to a conc of 10 uM; NI means no inhibition; type: functional, cell-based
MCF7 [8] = experiment: Compound was tested for inhibition of growth of human breast tumor MCF-7 cell line up to a conc of 10 uM; NI means no inhibition; type: functional, cell-based
PC-3 [9] = experiment: Compound was tested for inhibition of growth of prostate tumor cell line PC-3 up to a conc of 10 uM; NI means no inhibition; type: functional, cell-based, Homo sapiens
B16 [10] = experiment: In vivo antitumor activity against BDF1 mice bearing B16 murine melanoma cells at a dose of 10 mg/kg/day; type: functional, Mus musculus
B16 [11] = experiment: In vivo antitumor activity against BDF1 mice bearing B16 murine melanoma cells at a dose of 100 mg/kg/day; type: functional, Mus musculus
B16 [12] = experiment: In vivo antitumor activity against BDF1 mice bearing B16 murine melanoma cells at a dose of 30 mg/kg/day; type: functional, Mus musculus
B16 [13] = experiment: In vivo antitumor activity against BDF1 mice bearing B16 murine melanoma cells at a dose of 3 mg/kg/day; type: functional, Mus musculus

SMILES | pIC50 (B16 [1]) | pIC50 (A549 [2]) | pIC50 (HCT-116 [3]) | pIC50 (PC-3 [4]) | pIC50 (MCF7 [5]) | IC50 (A549 [6]) | IC50 (HCT-116 [7]) | IC50 (MCF7 [8]) | IC50 (PC-3 [9]) | Inhibition rate (B16 [10]) | Inhibition rate (B16 [11]) | Inhibition rate (B16 [12]) | Inhibition rate (B16 [13])
COc1ccc(-c2coc(=O)n2-c2cc(OC)c(OC)c(OC)c2)cc1O | 9.05 | 8.51 | 8.77 | 8.64 | 8.54 |  |  |  |  |  |  |  | 
COc1cc(-c2nc(O)oc2-c2ccc3ccccc3c2)cc(OC)c1OC | 8.13 | 7.97 | 7.95 | 8.15 | 7.78 |  |  |  |  |  |  |  | 
COc1ccc(-n2c(-c3cc(OC)c(OC)c(OC)c3)coc2=O)cc1 | 5.73 |  |  |  |  | Not Active | Not Active | Not Active | Not Active |  |  |  | 
COc1ccc(-c2coc(=O)n2-c2cc(OC)c(OC)c(OC)c2)cc1N | 8.96 | 8.37 | 8.49 | 8.60 | 8.74 |  |  |  |  | 34% | 67% | 61% | 
COc1cc(-n2c(-c3ccc4c(c3)OCO4)coc2=O)cc(OC)c1OC | 7.35 | 7.19 | 7.24 | 7.15 | 7.40 |  |  |  |  |  |  |  | 
COc1ccc(-c2oc(O)nc2-c2cc(OC)c(OC)c(OC)c2)cc1 | 7.84 | 7.77 | 7.66 | 7.70 | 7.55 |  |  |  |  |  |  |  | 
COc1cc(-c2nc(O)oc2-c2ccc3c(c2)OCO3)cc(OC)c1OC | 7.05 | 7.20 | 7.00 | 6.95 | 7.11 |  |  |  |  |  |  |  | 
COc1ccc(-c2oc(O)nc2-c2cc(OC)c(OC)c(OC)c2)cc1N | 8.62 | 8.42 | 8.43 | 8.68 | 8.31 |  |  |  |  |  |  |  | 
COc1ccc(-c2coc(=O)n2-c2cc(OC)c(OC)c(OC)c2)cc1 | 8.10 | 7.70 | 7.96 | 8.12 | 7.98 |  |  |  |  |  |  |  | 
COc1ccc(-c2nc(O)oc2-c2cc(OC)c(OC)c(OC)c2)cc1 | 5.86 |  |  |  |  | Not Active | Not Active | Not Active | Not Active |  |  |  | 
COc1ccc(-c2oc(O)nc2-c2cc(OC)c(OC)c(OC)c2)cc1O | 8.27 | 8.10 | 8.21 | 8.19 | 8.24 |  |  |  |  |  |  |  | 
COc1cc(-n2c(-c3ccc4ccccc4c3)coc2=O)cc(OC)c1OC | 8.24 | 8.23 | 8.31 | 8.51 | 8.43 |  |  |  |  |  |  |  | 
COc1ccc(/C=C\c2cc(OC)c(OC)c(OC)c2)cc1O [COMBRETASTATIN A4] | 9.00 | 8.68 | 9.05 | 8.57 | 8.57 |  |  |  |  |  |  |  | 
COc1cccc2c1C(=O)c1c(O)c3c(c(O)c1C2=O)C[C@@](O)(C(=O)CO)C[C@@H]3O[C@H]1C[C@H](N)[C@H](O)[C@H](C)O1 [DOXORUBICIN] |  |  |  |  |  |  |  |  |  |  |  |  | 55%
